From ChEMBL document CHEMBL1201862, “PubChem BioAssay data set” (2004)
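How tested: cells in 96-well plates exposed to compound for 48 hours at five concentrations. Abbreviation: GI50, concentration required for 50% inhibition of growth.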 Calls of active or inactive are those of the source. No stated cut-off is given here; in the data, active = GI50 up to about 1.1 µM and inactive = higher.

Tests used:
Test in all cases: NCI tumour cell line growth inhibition, 48 h
MOLT-4 = test system: MOLT-4
OVCAR-5 = test system: OVCAR-5
SK-MEL-5 = test system: SK-MEL-5
NCI-H23 = test system: NCI-H23
COLO 205 = test system: COLO 205
OVCAR-3 = test system: OVCAR-3
SK-MEL-2 = test system: SK-MEL-2
HT-29 = test system: HT-29
UO-31 = test system: UO-31
SNB-78 = test system: SNB-78
OVCAR-4 = test system: OVCAR-4
IGROV-1 = test system: IGROV-1
RXF 393 = test system: RXF 393
UACC-257 = test system: UACC-257
OVCAR-8 = test system: OVCAR-8
A549 = test system: A549
LOX IMVI = test system: LOX IMVI
HCT-116 = test system: HCT-116
NCI-H226 = test system: NCI-H226
EKVX = test system: EKVX
UACC-62 = test system: UACC-62
HOP-92 = test system: HOP-92
ACHN = test system: ACHN
XF498 = test system: XF498
M14 = test system: M14
SNB-75 = test system: SNB-75
SNB-19 = test system: SNB-19
DMS-114 = test system: DMS-114
CCRF-CEM = test system: CCRF-CEM
RPMI-8226 = test system: RPMI-8226
TK-10 = test system: TK-10
SF-295 = test system: SF-295
DLD-1 = test system: DLD-1
HCC 2998 = test system: HCC 2998
LXFL 529 = test system: LXFL 529
NCI-H460 = test system: NCI-H460
SK-MEL-28 = test system: SK-MEL-28
SN12C = test system: SN12C
786-0 = test system: 786-0
HOP-62 = test system: HOP-62
KM12 = test system: KM12
KM-20L2 = test system: KM-20L2
HL-60 = test system: HL-60
M19-MEL = test system: M19-MEL
HOP-18 = test system: HOP-18
SW-620 = test system: SW-620
Malme-3M = test system: Malme-3M
SF-268 = test system: SF-268
U-251 = test system: U-251
T47D = test system: T47D
NCI-H522 = test system: NCI-H522
DMS-273 = test system: DMS-273
CAKI-1 = test system: CAKI-1
PC-3 = test system: PC-3
A498 = test system: A498
DU-145 = test system: DU-145
MDA-MB-231 = test system: MDA-MB-231
SF-539 = test system: SF-539
BT-549 = test system: BT-549
NCI/ADR-RES = test system: NCI/ADR-RES
MDA-N = test system: MDA-N
MDA-MB-435 = test system: MDA-MB-435
MCF7 = test system: MCF7
SR = test system: SR
K562 = test system: K562
HCT-15 = test system: HCT-15
Hs-578T = test system: Hs-578T
SK-OV-3 = test system: SK-OV-3

Measured: GI50

O=C(CCC/C(CC(=O)c1ccc(Br)cc1)=N\O)Nc1ccccc1
inactive: MOLT-4 24.5 µM | OVCAR-5 28.2 µM | SK-MEL-5 43.3 µM | NCI-H23 > 100 µM | COLO 205 > 100 µM | OVCAR-3 > 100 µM | SK-MEL-2 > 100 µM | HT-29 57.4 µM | UO-31 > 100 µM | SNB-78 > 100 µM | OVCAR-4 76.9 µM | IGROV-1 57.3 µM | RXF 393 45.9 µM | UACC-257 67.9 µM | OVCAR-8 > 100 µM | A549 > 100 µM | LOX IMVI > 100 µM | HCT-116 > 100 µM | NCI-H226 > 100 µM | EKVX > 100 µM | UACC-62 46 µM | HOP-92 73.3 µM | ACHN 96.6 µM | XF498 > 100 µM | M14 > 100 µM | SNB-75 > 100 µM | SNB-19 > 100 µM | DMS-114 25.5 µM | CCRF-CEM 70.3 µM | RPMI-8226 10.7 µM | TK-10 > 100 µM | SF-295 > 100 µM | DLD-1 96.4 µM | HCC 2998 > 100 µM | LXFL 529 > 100 µM | NCI-H460 > 100 µM | SK-MEL-28 > 100 µM | SN12C > 100 µM | 786-0 > 100 µM | HOP-62 > 100 µM | KM12 > 100 µM | KM-20L2 91.4 µM | HL-60 65.2 µM | M19-MEL > 100 µM | HOP-18 > 100 µM | SW-620 > 100 µM | Malme-3M > 100 µM | SF-268 > 100 µM | U-251 > 100 µM

COc1ccc(S(=O)(=O)N/N=C/C(=O)O)cc1
inactive: MOLT-4 193 µM | OVCAR-5 873 µM | SK-MEL-5 400 µM | NCI-H23 369 µM | COLO 205 1010 µM | OVCAR-3 495 µM | T47D 695 µM | NCI-H522 275 µM | SK-MEL-2 428 µM | DMS-273 518 µM | HT-29 336 µM | UO-31 631 µM | CAKI-1 458 µM | SNB-78 830 µM | OVCAR-4 524 µM | IGROV-1 427 µM | PC-3 389 µM | RXF 393 410 µM | A498 495 µM | UACC-257 849 µM | DU-145 327 µM | MDA-MB-231 822 µM | SF-539 519 µM | BT-549 284 µM | NCI/ADR-RES 490 µM | OVCAR-8 499 µM | A549 849 µM | MDA-N 760 µM | MDA-MB-435 407 µM | LOX IMVI 248 µM | HCT-116 445 µM | NCI-H226 624 µM | EKVX 1160 µM | UACC-62 327 µM | HOP-92 364 µM | MCF7 409 µM | ACHN 354 µM | XF498 8.09 µM | M14 684 µM | SNB-75 708 µM | SNB-19 706 µM | DMS-114 490 µM | SR 202 µM | CCRF-CEM 176 µM | RPMI-8226 269 µM | TK-10 832 µM | SF-295 465 µM | DLD-1 > 906 µM | HCC 2998 607 µM | NCI-H460 359 µM | SK-MEL-28 764 µM | SN12C 475 µM | 786-0 397 µM | K562 501 µM | HOP-62 678 µM | KM12 557 µM | KM-20L2 > 1190 µM | HL-60 185 µM | M19-MEL 955 µM | HOP-18 > 1060 µM | SW-620 485 µM | Malme-3M 832 µM | Hs-578T 404 µM | SF-268 384 µM | SK-OV-3 971 µM | U-251 499 µM
542 µM: HCT-15

C=C1C(=O)OC2C1CCC(C)C1C=CC(=O)C12C (stereo not given)
inactive: MOLT-4 2.46 µM | OVCAR-5 4.53 µM | SK-MEL-5 3.33 µM | NCI-H23 3.25 µM | COLO 205 2.17 µM | OVCAR-3 1.22 µM | T47D 2.45 µM | SK-MEL-2 4.39 µM | DMS-273 4.08 µM | HT-29 2.02 µM | UO-31 4.75 µM | CAKI-1 2.97 µM | SNB-78 3.14 µM | OVCAR-4 6.76 µM | IGROV-1 6.14 µM | PC-3 4.49 µM | RXF 393 1.84 µM | A498 12.1 µM | UACC-257 1.97 µM | DU-145 2.53 µM | MDA-MB-231 2.19 µM | SF-539 2.74 µM | BT-549 1.63 µM | NCI/ADR-RES 1.41 µM | OVCAR-8 2.06 µM | A549 7.76 µM | MDA-N 1.77 µM | MDA-MB-435 1.73 µM | LOX IMVI 1.93 µM | HCT-116 1.74 µM | NCI-H226 3.75 µM | EKVX 8.79 µM | UACC-62 1.79 µM | HOP-92 4.1 µM | MCF7 3.92 µM | ACHN 1.73 µM | XF498 3.29 µM | M14 1.95 µM | SNB-75 8.15 µM | SNB-19 14.7 µM | SR 1.51 µM | CCRF-CEM 1.34 µM | RPMI-8226 1.81 µM | TK-10 3.05 µM | SF-295 6.81 µM | DLD-1 1.89 µM | HCC 2998 12 µM | LXFL 529 1.58 µM | NCI-H460 4.84 µM | SK-MEL-28 2.05 µM | SN12C 3.33 µM | 786-0 1.85 µM | K562 2.48 µM | HOP-62 15.5 µM | KM12 2.16 µM | KM-20L2 3.61 µM | HL-60 1.41 µM | M19-MEL 3.36 µM | HOP-18 6.65 µM | SW-620 1.8 µM | Malme-3M 2.5 µM | Hs-578T 2.56 µM | SF-268 8.61 µM | SK-OV-3 28 µM | U-251 11.9 µM
active: NCI-H522 0.891 µM
1.82 µM: HCT-15

CC(C)(C)C(=O)/C=C/c1ccc(Oc2ccccc2)cc1
> 10 µM: HCT-15
inactive: MOLT-4 6.95 µM | OVCAR-5 19.3 µM | SK-MEL-5 16.2 µM | NCI-H23 > 10 µM | NCI-H522 11.2 µM | SK-MEL-2 16.7 µM | HT-29 8.51 µM | UO-31 15.8 µM | SNB-78 25.5 µM | IGROV-1 30.8 µM | RXF 393 27.4 µM | A498 14.5 µM | UACC-257 18.7 µM | SF-539 > 10 µM | OVCAR-8 30.7 µM | A549 28.5 µM | HCT-116 12.1 µM | NCI-H226 19.6 µM | EKVX 20 µM | ACHN 17.5 µM | XF498 15.2 µM | M14 15.3 µM | SNB-75 23.4 µM | SNB-19 26.2 µM | CCRF-CEM 10.4 µM | RPMI-8226 8.95 µM | TK-10 26.6 µM | SF-295 24.8 µM | DLD-1 15 µM | HCC 2998 34.3 µM | LXFL 529 13.2 µM | NCI-H460 19.2 µM | SK-MEL-28 32 µM | SN12C 19.3 µM | 786-0 19.4 µM | K562 7.03 µM | HOP-62 27.4 µM | KM12 14.8 µM | KM-20L2 17.2 µM | M19-MEL 23.5 µM | HOP-18 19.3 µM | SW-620 17.3 µM | Malme-3M 19.2 µM | SF-268 22 µM | SK-OV-3 37.9 µM | U-251 14.8 µM
